Measurements reported in patent US20170071976A1, “PHARMACEUTICAL SOLUTION HAVING ANTI-TUMOR EFFECT-ENHANCING AND TOXICITY-REDUCING EFFECT, AND PHARMACEUTICAL COMPOSITION COMPRISING SAME” (priority 2014, published 2017).

Key:
Test in all cases: MTT assay: in vitro inhibition of growth by deuterium oxide
Type in all cases: cell-based, human
[1] = system: BGC-823 gastric cancer cell line
Experimental: (§1) Studies of in vitro inhibition of growth of human tumor cells by deuterium oxide, by the MTT (3-(4,5-dimethylthiazol-2-yl)-2,5-diphenyltetrazolium bromide) assay
(§2) 1. A bottle of cells that had been cultured for 3 to 4 days and were in the exponential phase was taken, a suitable amount of 0.25% Trypsin-EDTA solution was added thereto to detach the cells from the wall, and the cells were suspended in 10 ml RPMI 1640 medium containing 10% FBS. 2. The cells were counted on a hemocytometer, and generally viable cells should be not less than 97%. 3. The cell suspension was diluted with a complete medium to prepare a suspension containing 1×10^4 cells/ml. 4. To each well of a 12-well culture plate, 300 μl cell suspension was added. The addition of cells should be finished within 4 hours. The plate was placed in an incubator at 37° C. and 5% CO2 for 24 hours. 5. Powdery RPMI Medium 1640 (Gibco, USA, Cat#: 31800-022) was dissolved in deuterium oxide (provided by Cambridge Isotope Laboratories, Inc. (US)) to prepare a cell culture medium (unless particularly specified, all culture media used in the Examples hereinafter were prepared from powdery RPMI Medium 1640 and deuterium oxide) at a concentration shown in Table 1, which was added into the cell culture plate. 6. The cell culture plate was incubated for 3 days in an incubator at 37° C., 5% CO2 and 100% humidity. 7. A solution of 1 mg/ml MTT was prepared in a serum-free RPMI1640 medium, added to the plate at 200 μl/well, and incubated at 37° C. for 4 hours, to allow MTT to be reduced to formazan. 8. The supernatant was removed by pipetting, 200 μl DMSO was added to dissolve formazan, and the solution was well mixed on a platform shaker. 9. Absorbance of each well was measured on an ELISA reader with a detection wavelength of 570 nm and a reference wavelength of 450 nm. 10. The assay was repeated one more time.
(§3) Calculation of results: Inhibition of growth of tumor cells by deuterium oxide was calculated using tumor cells treated with sodium chloride physiological solution as a control group. Inhibition of cell growth was plotted against amounts of deuterium oxide to obtain a dose response curve, from which the half maximal inhibitory concentration (IC50) of deuterium oxide was derived.
(§4) Inhibition of tumor cell growth (%)=(1−OD test/OD control)×100%

[2] = system: A549 lung cancer cell line
Experimental: as §1, §2, §3, §4

[3] = system: 5637 bladder cancer cell line
Experimental: as §1, §2, §3, §4

[4] = system: MCF-7 breast cancer cell line
Experimental: as §1, §2, §3, §4

[5] = system: Caov-3 ovarian cancer cell line; conditions: expressed in v/v %
Experimental: as §1, §2, §3, §4

[6] = system: SF767 brain cancer cell line
Experimental: as §1, §2, §3, §4

[7] = system: HeLa cervical cancer cell line
Experimental: as §1, §2, §3, §4

[8] = system: CFPAC-1 pancreatic cancer cell line
Experimental: as §1, §2, §3, §4

[9] = system: PANC-1 pancreatic cancer cell line
Experimental: as §1, §2, §3, §4

[2H]O[2H] [Deuterium oxide]
Inhibition of growth (%) ([1]; deuterium oxide 1.2% (v/v)): 2.74% | Inhibition of growth (%) ([1]; deuterium oxide 2.5% (v/v)): 2.15% | Inhibition of growth (%) ([1]; deuterium oxide 5% (v/v)): −4.23% | Inhibition of growth (%) ([1]; deuterium oxide 10% (v/v)): −3.60% | Inhibition of growth (%) ([1]; deuterium oxide 20% (v/v)): 9.09% | Inhibition of growth (%) ([1]; deuterium oxide 30% (v/v)): 12.32% | Inhibition of growth (%) ([1]; deuterium oxide 40% (v/v)): 7.50% | Inhibition of growth (%) ([1]; deuterium oxide 50% (v/v)): 15.99% | Inhibition of growth (%) ([1]; deuterium oxide 60% (v/v)): 37.83% | Inhibition of growth (%) ([1]; deuterium oxide 70% (v/v)): 61.90% | Inhibition of growth (%) ([1]; deuterium oxide 80% (v/v)): 74.57% | IC10 ([1]; expressed in v/v %): 26.92% | IC50 ([1]; expressed in v/v %): 96.68% | Inhibition of growth (%) ([2]; deuterium oxide 1.2% (v/v)): 7.71% | Inhibition of growth (%) ([2]; deuterium oxide 2.5% (v/v)): 17.64% | Inhibition of growth (%) ([2]; deuterium oxide 5% (v/v)): 18.05% | Inhibition of growth (%) ([2]; deuterium oxide 10% (v/v)): 18.88% | Inhibition of growth (%) ([2]; deuterium oxide 20% (v/v)): 16.19% | Inhibition of growth (%) ([2]; deuterium oxide 30% (v/v)): 27.71% | Inhibition of growth (%) ([2]; deuterium oxide 40% (v/v)): 39.37% | Inhibition of growth (%) ([2]; deuterium oxide 50% (v/v)): 42.67% | Inhibition of growth (%) ([2]; deuterium oxide 60% (v/v)): 55.42% | Inhibition of growth (%) ([2]; deuterium oxide 70% (v/v)): 70.88% | Inhibition of growth (%) ([2]; deuterium oxide 80% (v/v)): 92.34% | IC10 ([2]; expressed in v/v %): 1.52% | IC50 ([2]; expressed in v/v %): 55.32% | Inhibition of growth (%) ([3]; deuterium oxide 1.2% (v/v)): 0.84% | Inhibition of growth (%) ([3]; deuterium oxide 2.5% (v/v)): −3.09% | Inhibition of growth (%) ([3]; deuterium oxide 5% (v/v)): 10.44% | Inhibition of growth (%) ([3]; deuterium oxide 10% (v/v)): 16.15% | Inhibition of growth (%) ([3]; deuterium oxide 20% (v/v)): 25.56% | Inhibition of growth (%) ([3]; deuterium oxide 30% (v/v)): 36.69% | Inhibition of growth (%) ([3]; deuterium oxide 40% (v/v)): 44.32% | Inhibition of growth (%) ([3]; deuterium oxide 50% (v/v)): 52.11% | Inhibition of growth (%) ([3]; deuterium oxide 60% (v/v)): 59.76% | Inhibition of growth (%) ([3]; deuterium oxide 70% (v/v)): 74.86% | Inhibition of growth (%) ([3]; deuterium oxide 80% (v/v)): 88.43% | IC10 ([3]; expressed in v/v %): 4.46% | IC50 ([3]; expressed in v/v %): 59.08% | Inhibition of growth (%) ([4]; deuterium oxide 1.2% (v/v)): 9.78% | Inhibition of growth (%) ([4]; deuterium oxide 2.5% (v/v)): 11.04% | Inhibition of growth (%) ([4]; deuterium oxide 5% (v/v)): 15.71% | Inhibition of growth (%) ([4]; deuterium oxide 10% (v/v)): 22.47% | Inhibition of growth (%) ([4]; deuterium oxide 20% (v/v)): 31.60% | Inhibition of growth (%) ([4]; deuterium oxide 30% (v/v)): 40.38% | Inhibition of growth (%) ([4]; deuterium oxide 40% (v/v)): 52.45% | Inhibition of growth (%) ([4]; deuterium oxide 50% (v/v)): 63.22% | Inhibition of growth (%) ([4]; deuterium oxide 60% (v/v)): 86.41% | Inhibition of growth (%) ([4]; deuterium oxide 70% (v/v)): 89.06% | Inhibition of growth (%) ([4]; deuterium oxide 80% (v/v)): 98.08% | IC10 ([4]; expressed in v/v %): 3.28% | IC50 ([4]; expressed in v/v %): 61.29% | IC10 [5]: 11.51% | IC50 [5]: 46.83% | Inhibition of growth (%) ([6]; deuterium oxide 1.2% (v/v)): 4.76% | Inhibition of growth (%) ([6]; deuterium oxide 2.5% (v/v)): 3.94% | Inhibition of growth (%) ([6]; deuterium oxide 5% (v/v)): −4.41% | Inhibition of growth (%) ([6]; deuterium oxide 10% (v/v)): −8.43% | Inhibition of growth (%) ([6]; deuterium oxide 20% (v/v)): 7.66% | Inhibition of growth (%) ([6]; deuterium oxide 30% (v/v)): 8.42% | Inhibition of growth (%) ([6]; deuterium oxide 40% (v/v)): 16.50% | Inhibition of growth (%) ([6]; deuterium oxide 50% (v/v)): 21.23% | Inhibition of growth (%) ([6]; deuterium oxide 70% (v/v)): 49.65% | Inhibition of growth (%) ([6]; deuterium oxide 80% (v/v)): 71.22% | IC10 ([6]; expressed in v/v %): 31.85% | IC50 ([6]; expressed in v/v %): 91.12% | Inhibition of growth (%) ([7]; deuterium oxide 1.2% (v/v)): 12.11% | Inhibition of growth (%) ([7]; deuterium oxide 2.5% (v/v)): 14.44% | Inhibition of growth (%) ([7]; deuterium oxide 5% (v/v)): 16.25% | Inhibition of growth (%) ([7]; deuterium oxide 10% (v/v)): 28.87% | Inhibition of growth (%) ([7]; deuterium oxide 20% (v/v)): 36.12% | Inhibition of growth (%) ([7]; deuterium oxide 30% (v/v)): 45.41% | Inhibition of growth (%) ([7]; deuterium oxide 40% (v/v)): 58.26% | Inhibition of growth (%) ([7]; deuterium oxide 50% (v/v)): 65.63% | Inhibition of growth (%) ([7]; deuterium oxide 60% (v/v)): 73.32% | Inhibition of growth (%) ([7]; deuterium oxide 70% (v/v)): 85.82% | Inhibition of growth (%) ([7]; deuterium oxide 80% (v/v)): 90.11% | IC10 ([7]; expressed in v/v %): 1.8% | IC50 ([7]; expressed in v/v %): 68.33% | Inhibition of growth (%) ([8]; deuterium oxide 1.2% (v/v)): 6.82% | Inhibition of growth (%) ([8]; deuterium oxide 2.5% (v/v)): 14.05% | Inhibition of growth (%) ([8]; deuterium oxide 5% (v/v)): 13.42% | Inhibition of growth (%) ([8]; deuterium oxide 10% (v/v)): 10.75% | Inhibition of growth (%) ([8]; deuterium oxide 20% (v/v)): 14.84% | Inhibition of growth (%) ([8]; deuterium oxide 30% (v/v)): 26.16% | Inhibition of growth (%) ([8]; deuterium oxide 40% (v/v)): 33.67% | Inhibition of growth (%) ([8]; deuterium oxide 50% (v/v)): 45.30% | Inhibition of growth (%) ([8]; deuterium oxide 60% (v/v)): 61.42% | Inhibition of growth (%) ([8]; deuterium oxide 70% (v/v)): 77.94% | Inhibition of growth (%) ([8]; deuterium oxide 80% (v/v)): 91.85% | IC10 ([8]; expressed in v/v %): 3.20% | IC50 ([8]; expressed in v/v %): 59.43% | Inhibition of growth (%) ([9]; deuterium oxide 1.2% (v/v)): 7.37% | Inhibition of growth (%) ([9]; deuterium oxide 2.5% (v/v)): 13.88% | Inhibition of growth (%) ([9]; deuterium oxide 5% (v/v)): 14.41% | Inhibition of growth (%) ([9]; deuterium oxide 10% (v/v)): 8.43% | Inhibition of growth (%) ([9]; deuterium oxide 20% (v/v)): 9.06% | Inhibition of growth (%) ([9]; deuterium oxide 30% (v/v)): 17.81% | Inhibition of growth (%) ([9]; deuterium oxide 40% (v/v)): 26.73% | Inhibition of growth (%) ([9]; deuterium oxide 50% (v/v)): 31.62% | Inhibition of growth (%) ([9]; deuterium oxide 60% (v/v)): 50.31% | Inhibition of growth (%) ([9]; deuterium oxide 70% (v/v)): 57.29% | Inhibition of growth (%) ([9]; deuterium oxide 80% (v/v)): 79.05% | IC10 ([9]; expressed in v/v %): 3.03% | IC50 ([9]; expressed in v/v %): 65.38%
